# Experimental data taken from ChEMBL document CHEMBL1154199, “Design, synthesis and evaluation of novel 5,6-dimethoxy-1-oxo-2,3-dihydro-1H-2-indenyl-3,4-substituted phenyl methanone analogues” (Bioorg Med Chem Lett, 2009).
# pIC50: −log10 of the molar value.
# Molecular target: Acetylcholinesterase (Electrophorus electricus, UniProt O42275)
# Assay: Inhibition of Electrophorus electricus AChE by Ellman's method
# Details: not given; call rule not given here
# Chain of Acetylcholinesterase (O42275 whole entry): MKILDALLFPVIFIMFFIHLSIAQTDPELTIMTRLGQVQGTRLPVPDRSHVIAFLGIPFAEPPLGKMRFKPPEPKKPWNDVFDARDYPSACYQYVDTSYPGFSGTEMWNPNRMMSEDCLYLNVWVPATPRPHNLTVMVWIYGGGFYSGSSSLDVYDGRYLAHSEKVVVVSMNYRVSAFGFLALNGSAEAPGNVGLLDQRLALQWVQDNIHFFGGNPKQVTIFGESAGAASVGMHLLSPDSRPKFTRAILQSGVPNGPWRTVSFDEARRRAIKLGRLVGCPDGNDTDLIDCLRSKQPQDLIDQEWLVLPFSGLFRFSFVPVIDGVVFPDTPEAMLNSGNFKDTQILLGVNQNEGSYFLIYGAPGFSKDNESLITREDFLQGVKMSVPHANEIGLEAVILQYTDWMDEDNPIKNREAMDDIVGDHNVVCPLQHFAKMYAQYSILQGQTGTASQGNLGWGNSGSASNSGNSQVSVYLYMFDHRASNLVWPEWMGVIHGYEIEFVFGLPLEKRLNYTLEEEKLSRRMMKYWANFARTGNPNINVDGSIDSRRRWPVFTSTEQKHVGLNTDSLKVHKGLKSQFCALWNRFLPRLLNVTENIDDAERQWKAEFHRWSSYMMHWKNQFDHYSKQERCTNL
row,SMILES,IC50
1,COc1cc2c(cc1OC)C(=O)C(C(=O)c1cccc([N+](=O)[O-])c1)C2 (centres undefined),Not Active

# Same assay, conditions: read-out: IC50
row,SMILES,pIC50
1,COc1cc2c(cc1OC)C(=O)C(C(=O)c1ccco1)C2 (centres undefined),5.03
2,COc1cc2c(cc1OC)C(=O)C(C(=O)c1ccc(Cl)cc1)C2 (centres undefined),4.39
3,COc1cc2c(cc1OC)C(=O)C(C(=O)c1c(Cl)cccc1Cl)C2 (centres undefined),3.99
4,COc1cc2c(cc1OC)C(=O)C(C(=O)c1ccc(F)cc1)C2 (centres undefined),4.38
5,COc1cc2c(cc1OC)C(=O)C(C(=O)c1ccc(N(C)C)cc1)C2 (centres undefined),4.53
6,COc1cc2c(cc1OC)C(=O)C(C(=O)c1ccccc1Cl)C2 (centres undefined),4.19
7,COc1ccc(C(=O)C2Cc3cc(OC)c(OC)cc3C2=O)cc1 (centres undefined),5.21
8,COc1ccc(C(=O)C2Cc3cc(OC)c(OC)cc3C2=O)cc1OC (centres undefined),5.37
9,COc1cc2c(cc1OC)C(=O)C(C(=O)c1ccccc1)C2 (centres undefined),4.68
10,COc1cc2c(cc1OC)C(=O)C(C(=O)c1cccs1)C2 (centres undefined),5.07
11,COc1cc2c(cc1OC)C(=O)C(C(=O)c1ccc(C#N)cc1)C2 (centres undefined),4.28
12,COc1cc2c(cc1OC)C(=O)C(C(=O)c1cc(OC)c(OC)c(OC)c1)C2 (centres undefined),5.57
13,COc1cc2c(cc1OC)C(=O)C(C(=O)c1ccc(Br)cc1)C2 (centres undefined),4.35
